According to patent US20260242405A1, “N-DERIVATIZED SIALIC ACIDS AND RELATED SIALOSIDES” (THE REGENTS OF THE UNIVERSITY OF CALIFORNIA, priority 2023, published 2026):
Where two headings read alike, the source gives them in different places.

Assays:
N1-BR18 = settings: read-out: KD for the interaction of N1-BR18
H1N1/BR18 virus = settings: virus in egg allantoic fluid, streptavidin plates or Dynabeads
[1] = tested on: NAs from both IAVs and IBVs
Protocol: Enzyme-linked immunosorbent assays (ELISA). These assays were carried out in duplicates in 384-well NeutrAvidin-coated plates. The wells were washed with 3×80 μL of washing buffer (1× PBS buffer with 0.05% tween-20) and then were incubated with biotinylated glycans (10 μM, 20 μL) at 4° C. for overnight. Then the wells were washed with 3×80 μL of washing buffer and blocked with 60 μL of blocking buffer (1× PBS buffer with 0.1% BSA). The wells were then washed with 3×80 μL of washing buffer, and NA (10 μg/mL, 20 μL) was added to each well. The samples were incubated at 4° C. for 30 minutes. The wells were then washed with 3×80 μL of washing buffer, and HRP-conjugated anti-His or anti-Strep antibodies (0.1 μg/mL or with proper dilution using 1× PBS buffer with 0.1% BSA, 20 μL) were added. The samples were incubated at 4° C. for 30 minutes.

Substance | binding of influenza NAs to immobilized sialoside (BLI), in words (influenza NAs) | Kd (N1-BR18) [nM] | detection and retention of H1N1/BR18 virions by immobilized ligand (H1N1/BR18 virus; listed as 4-Guanidino-Neu5Acα2-3LacNAcβProNH-PEG4-Biotin (10d)) | detection and retention of H1N1/BR18 virions by immobilized ligand (H1N1/BR18 virus; listed as 4-guanidino-Neu5Acα2-3LacNAcβProNH-PEG4-Biotin (10d)) | suitability as affinity ligand for immobilizing NAs (ELISA) [1] | detection and retention of H1N1/BR18 virions by immobilized ligand (H1N1/BR18 virus)
4-Guanidino-Neu5Acα2-3LacNAcβPorNH-PEG4-Biotin [Compound 10d] | significantly stronger binders than other sialosides | 45.5 | effective affinity ligand for detecting and purifying H1N1 virus | efficient in retaining H1N1/BR18 virions | – | –
4N3Neu5Acα2-3LacNAcβProNH-PEG4-Biotin [Compound 11d] | Weak binding of N1-Vic19, N2-Dar21, and the IBV NAs | – | – | – | not suitable affinity ligands | –
4NAcNeu5Acα2-3LacNAcβProNH-PEG4-Biotin [Compound 12d] | weak binding of N1-Vic19 and N2-Dar21 | – | – | – | not suitable affinity ligands | –
LacNAcβProNH-PEG4-Biotin [LacNAcβProNH-PEG4-Biotin (20), reference compound] | – | – | – | – | not suitable affinity ligands | did not retain influenza virions
